Experimental data from ChEMBL document CHEMBL1151404, “Modification and evaluation of the potato disc assay and antitumor screening of euphorbiaceae seeds” (1982).

Experiments:
Format in all cases: functional
[1] = test system: Agrobacterium tumefaciens; test: Antitumor activity against Agrobacterium tumefaciens B6-induced tumor formation at 10 ug/disk after 12 days by potato disk assay; conditions: B6, 288 h
[2] = test system: Agrobacterium tumefaciens; test: Antitumor activity against Agrobacterium tumefaciens B6-induced tumor formation at 5 ug/disk after 12 days by potato disk assay; conditions: B6, 288 h
[3] = test system: Agrobacterium tumefaciens; test: Antitumor activity against Agrobacterium tumefaciens B6-induced tumor formation at 2.5 ug/disk after 12 days by potato disk assay; conditions: B6, 288 h
[4] = test system: P388; test: Antitumor activity against mouse P388 cells xenografted mouse assessed as increase in life span relative to control
[5] = test system: Agrobacterium tumefaciens; test: Antitumor activity against Agrobacterium tumefaciens B6-induced tumor formation at 1.5 ug/disk after 12 days by potato disk assay; conditions: B6, 288 h

Compound	inhibition at 10 µg/disc [1] [%]	inhibition at 5 µg/disc [2] [%]	inhibition at 2.5 µg/disc [3] [%]	T/C [4] [%]	inhibition at 1.5 µg/disc [5] [%]
COc1ccc(C[C@H]2C(=O)N[C@@H](C)C(=O)N(C)[C@@H]3C(=O)N(C)[C@@H](Cc4ccc(O)c(c4)Oc4ccc(cc4)[C@@H]3O)C(=O)N[C@@H](C)C(=O)N[C@@H](C)C(=O)N2C)cc1 [BOUVARDIN]	-40	-15	14	188	
COC(=O)C[C@](O)(CCCC(C)(C)O)C(=O)O[C@@H]1C(OC)=C[C@]23CCCN2CCc2cc4c(cc2[C@H]13)OCO4 [OMACETAXINE MEPESUCCINATE]	-79	-64	-72	238	
COc1cc2cc(c1Cl)N(C)C(=O)C[C@H](OC(=O)[C@H](C)N(C)C(=O)C(C)C)[C@]1(C)O[C@H]1[C@H](C)[C@@H]1C[C@@](O)(NC(=O)O1)[C@H](OC)/C=C/C=C(\C)C2OC (some centres not stated) [TREWIASINE]	-100	-100	-100	168	-100
CC[C@]1(O)C[C@H]2CN(CCc3c([nH]c4ccccc34)[C@@](C(=O)OC)(c3cc4c(cc3OC)N(C=O)[C@H]3[C@@](O)(C(=O)OC)[C@H](OC(C)=O)[C@]5(CC)C=CCN6CC[C@]43[C@@H]65)C2)C1 [VINCRISTINE]	-44	-36	-17	242	
